# Experimental data from patent publication US8003613B2, “Methods and compositions for inducing apoptosis” (University of Florida Research Foundation, Inc., priority 2003, dated 2011).
# Where two headings read alike, the source gives them in different places. Where no end group is shown, it is not given here.
# Assays:
# VEGFR-3 = details: no method given; cited from earlier work
# [1] = test system: BT474, BT20, and MCF7 breast cancer cells; experiment: Displacement of FAK from focal adhesions, rounding and detachment in breast cancer cells; type: cell-based, human; details: peptide coupled to TAT-FITC
# Experimental: (§1) Visualization and penetration of Peptide-35 into breast cancer cells was accomplished by coupling the peptide to FITC and using a TAT penetration sequence. Apoptosis was measured using the Elisa Plus cell death detection assay after cells were treated with drug for 24 hours. Apoptosis was further confirmed by the Hoechst assay.
# (§2) Peptide-35 and AV3 (SEQ ID NO: 3) were coupled to a TAT sequence (YGRKKRRQRRR; SEQ ID NO: 5) to allow cellular penetration. Peptide-35 was also coupled to FITC for visualization of the peptide inside cells. Anti-FAK, anti-GST, anti-VEGFR-3, and anti-tubulin antibodies were used for immunoprecipitation and western blotting.
# (§3) Cells were plated onto coverslips in six-well culture plates in medium for 24 hours and stained with anti-FAK and anti-VEGFR-3 antibodies and visualized for co-localization.
# [2] = test system: MCF10A normal breast cells; experiment: Detachment assay, MCF10A; type: cell-based, human; details: 6 hours treatment
# Experimental: (§4) Detached and attached cells after drug treatment for 6 hours cells were counted by hemocytometer. The percent detachment was calculated by dividing the number of detached cells by the total number of cells.
# cancer cells = experiment: Apoptosis in cancer cell lines; type: cell-based, human; details: different cancer cell lines
# Experimental: as §1
# (§5) Cells were treated with drug for 24 hours and then harvested. Hoechst 33342 was added and the specimens were mounted on glass coverslips. The slides were viewed under the microscope for apoptotic nuclei. The percent apoptosis was calculated by dividing the number of apoptotic cells by the total number of cells (300).
# FAK-CD = target: T1, FAK-CD (Homo sapiens, UniProt Q05397); experiment: Phage display / phage overlay binding to FAK-CD; details: Western blot/phage overlay
# T1 construct: made in house
# Description: Peptides that bind FAK were isolated by phage display techniques. Baculovirus FAK-CD was the target protein and peptides were isolated from a phage library (New England Biolabs). After three rounds of panning, recovered phages were sequenced to identify potential peptides that bind FAK. Western-blot analysis and phage overlay were used to confirm the binding of these peptides to FAK. Peptide binding partners to FAK-CD were isolated by phage display. Baculoviral FAK-CD was used as a target and was coated to a plate and peptides were isolated from a phage library containing different 12-amino acids (New England Biolabs). After three rounds of panning, recovered phages were sequenced to identify potential peptides that bind FAK. […] Pure protein (4 μg) with loading buffer was boiled for 10 min and resolved by SDS-PAGE. Proteins were transferred to polyvinylidene difluoride membrane, probed with phage-35, and detected by chemiluminescence (Perkin-Elmer Life Sciences, Inc.).
# normal MCF10A cells = experiment: Displacement of FAK from focal adhesions, rounding and detachment in normal breast cells; type: cell-based, human; details: peptide coupled to TAT-FITC
# Experimental: as §1, §2, §3
# [3] = test system: BT474 breast cancer cells; experiment: Detachment assay, BT474; type: cell-based, human; details: 6 hours treatment
# Experimental: as §4
# [4] = test system: BT474 breast cancer cells; experiment: Apoptosis assay, BT474; type: cell-based, human; details: 24 hours treatment, confirmed by Hoechst assay
# Experimental: as §1, §5
# [5] = test system: MCF10A normal breast cells; experiment: Apoptosis assay, MCF10A; type: cell-based, human
# Experimental: as §1, §5
# IMR neuroblastoma cells [6] = experiment: Detachment assay, IMR neuroblastoma; type: cell-based; details: IMR neuroblastoma cells with high VEGFR-3; peptide conjugated with TAT
# Experimental: as §4
# IMR neuroblastoma cells [7] = experiment: Apoptosis assay, IMR neuroblastoma; type: cell-based; details: IMR neuroblastoma cells with high VEGFR-3; peptide conjugated with TAT
# Experimental: as §5
# [8] = test system: Mouse Fibroblast, FAK/FAK+; experiment: Detachment assay, mouse fibroblasts; type: cell-based; details: FAK+ compared with FAK-deficient
# Experimental: BT474 cells were maintained in RPMI 1640 with 10% fetal bovine serum, 10 μg/ml insulin, and 2 mM L-glutamine. Mouse embryonic fibroblasts were maintained in DMEM with 10% FBS, Amphotericin B, and NEAA. HEK293 human embryonic kidney cells were maintained in DMEM with 10% FBS, and 2 mM L-glutamine. All cells were incubated at 37° C. in 5% CO2. Detached and attached cells after drug treatment for 6 hours cells were counted by hemocytometer. The percent detachment was calculated by dividing the number of detached cells by the total number of cells.
# [9] = target: T2, chicken FAT, FAK C-terminal domain (Gallus gallus, UniProt Q00944); experiment: NMR analysis of peptide binding to FAT domain; details: preliminary NMR analysis
# T2 sequence (Q00944 915-1046 limits assumed): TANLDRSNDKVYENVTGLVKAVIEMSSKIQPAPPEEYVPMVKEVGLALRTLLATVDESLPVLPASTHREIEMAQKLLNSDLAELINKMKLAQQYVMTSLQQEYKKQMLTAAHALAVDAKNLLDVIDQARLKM
# Experimental: Structural analysis of VEGFR-3 peptide binding to the FAT domain of FAK is performed. Structural analysis is by nuclear magnetic resonance (NMR) spectroscopy. The solvent accessible area of the FAT-domain is predominantly hydrophilic with hydrophobic patches located on the helix 1-helix 4 face and the helix 2-helix 3 face. The hydrophobic patches may be involved in paxillin binding interactions. Results from these analyses indicate that NMR approaches will be successful in delineating detailed binding interactions between the inhibitor peptide and the FAT domain.
# The site of peptide binding and is determined and specificity of binding is analyzed. Different scrambled peptides are synthesized to analyze the specificity of NMR assay. Different mutant peptides are synthesized to determine specific amino-acids involved in this interaction.
# T1 sequence (Q05397 693-1052 limits assumed): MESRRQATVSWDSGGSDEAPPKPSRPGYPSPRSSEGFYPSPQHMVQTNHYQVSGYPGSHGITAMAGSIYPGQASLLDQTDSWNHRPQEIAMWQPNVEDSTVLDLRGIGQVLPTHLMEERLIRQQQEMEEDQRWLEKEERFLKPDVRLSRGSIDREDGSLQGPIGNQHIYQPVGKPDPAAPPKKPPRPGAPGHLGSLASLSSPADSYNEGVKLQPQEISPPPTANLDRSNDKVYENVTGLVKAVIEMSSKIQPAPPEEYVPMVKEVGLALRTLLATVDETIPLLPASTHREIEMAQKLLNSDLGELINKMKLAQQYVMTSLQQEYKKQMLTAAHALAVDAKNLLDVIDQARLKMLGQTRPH
compound,measurement,setting,value
CC(C)(C)n1nc(-c2ccc(Cl)cc2)c2c(N)ncnc21 [PP2],inhibition of VEGFR-3 phosphorylation,VEGFR-3,inhibited
"HPWQWTISWPQW (listed as Homo sapiens) [scrambled peptide 35, control peptide, scrambled peptide 35, reference compound]","displacement of FAK from focal adhesions, degradation of FAK, rounding, detachment",[1],not
same,detachment,[2],minimal detachment
same,apoptosis (with detachment / loss of focal adhesions) in cancer cells,cancer cells,not observed
"WHWQWTPWSIQP (also: TAT and FITC conjugated; listed as Homo sapiens) [Peptide-35, coupled to TAT (and FITC) for cell penetration]",binding to FAK-CD (C-terminal part of FAK),FAK-CD,binds to specific sequences of FAK-CD
same,binding to FAK-CD (C-terminal part of FAK),FAK-CD; listed as peptide 35,binds to the C-terminal part of FAK and FAT domain
same,"displacement of FAK from focal adhesions, degradation of FAK, rounding, detachment",[1],"cause displacement of FAK from focal adhesions, degradation of FAK, rounding, and detachment"
same,"displacement of FAK from focal adhesions, degradation of FAK, rounding, detachment",[1]; listed as peptide-35,caused displacement of FAK from focal adhesions
same,"displacement of FAK from focal adhesions, degradation of FAK, rounding, detachment",normal MCF10A cells,not in normal MCF10A cells
same,"displacement of FAK from focal adhesions, degradation of FAK, rounding, detachment",normal MCF10A cells; listed as peptide-35,not in normal MCF10A breast cells
same,detachment,[3],caused detachment
same,detachment,[3]; listed as peptide-35,higher level of detachment
same,detachment,[2],not in MCF10A normal breast cells
same,detachment,[2]; listed as peptide-35,minimal detachment
same,apoptosis,[4],caused detachment and apoptosis
same,apoptosis,[4]; listed as peptide-35,higher level of apoptosis
same,apoptosis,[5],not in MCF10A normal breast cells
same,apoptosis,[5]; listed as peptide 35,not observed
same,apoptosis (with detachment / loss of focal adhesions) in cancer cells,cancer cells,caused loss of focal adhesions and apoptosis
same,apoptosis (with detachment / loss of focal adhesions) in cancer cells,cancer cells; listed as peptide 35,induces detachment and apoptosis
"WHWRPWTPCKMF (also: TAT peptide conjugated; listed as Homo sapiens) [AV3, synthesized peptide homologous to twelve amino-acids of VEGFR-3; conjugated with TAT peptide for penetration into cells]",apoptosis,[5],not observed
same,detachment,IMR neuroblastoma cells [6],increased detachment
same,apoptosis,IMR neuroblastoma cells [7],increased detachment and apoptosis
same,detachment,[8],"Mouse Fibroblast, FAK/FAK+. Greater"
same,binding to FAT domain by NMR,[9],detected binding
same,apoptosis (with detachment / loss of focal adhesions) in cancer cells,cancer cells,induces detachment and apoptosis
same,apoptosis (with detachment / loss of focal adhesions) in cancer cells,cancer cells; listed as VEGFR-3 (AV-3) peptide,caused apoptosis in cancer cells similar to peptide 35
